Type in all cases: functional, cell-based
The target of experiment [1] is T1, Beta-3 adrenergic receptor (Homo sapiens, UniProt P13945). In words: Antagonist activity at human beta3-adrenergic receptor expressed in CHO-K1 cells co-expressing CRE-SPAP reporter gene assessed as inhibition of fenoterol-induced CRE-SPAP production by measuring rightward shift of the fenoterol concentration response curve measured after 5 hrs incubation. On the technique in general: Reporter assays use an easily measured gene product as a stand-in for the process of interest.

In experiment [2] the target is T2, Beta-1 adrenergic receptor (Homo sapiens, UniProt P08588). Put plainly: Antagonist activity at human beta1-adrenergic receptor expressed in CHO-K1 cells co-expressing CRE-SPAP reporter gene assessed as inhibition of fenoterol-induced CRE-SPAP production by measuring rightward shift of the fenoterol concentration response curve measured after 5 hrs incubation.
Experiment [3] addresses T3, Beta-2 adrenergic receptor (Homo sapiens, UniProt P07550). In words: Antagonist activity at human beta2-adrenergic receptor expressed in CHO-K1 cells co-expressing CRE-SPAP reporter gene assessed as inhibition of fenoterol-induced CRE-SPAP production by measuring rightward shift of the fenoterol concentration response curve measured after 5 hrs incubation.
The target in experiment [4] is T2, Beta-1 adrenergic receptor. Put plainly: Agonist activity at human beta1-adrenergic receptor expressed in CHO-K1 cells co-expressing CRE-SPAP reporter gene assessed as CRE-SPAP production measured after 5 hrs incubation.
Experiment [5] concerns the target T1, Beta-3 adrenergic receptor. Put plainly: Agonist activity at human beta3-adrenergic receptor expressed in CHO-K1 cells co-expressing CRE-SPAP reporter gene assessed as CRE-SPAP production measured after 5 hrs incubation.
For experiment [6], the target named is T3, Beta-2 adrenergic receptor. Put plainly: Agonist activity at human beta2-adrenergic receptor expressed in CHO-K1 cells co-expressing CRE-SPAP reporter gene assessed as CRE-SPAP production measured after 5 hrs incubation.

18 compounds from ChEMBL document CHEMBL5352468, “Rational design, synthesis, and pharmacological evaluation of a cohort of novel beta-adrenergic receptors ligands enables an assessment of structure-activity relationships” (Eur J Med Chem, 2023) can be followed below.

Some results are limits rather than exact numbers.

T1 sequence (P13945 whole entry): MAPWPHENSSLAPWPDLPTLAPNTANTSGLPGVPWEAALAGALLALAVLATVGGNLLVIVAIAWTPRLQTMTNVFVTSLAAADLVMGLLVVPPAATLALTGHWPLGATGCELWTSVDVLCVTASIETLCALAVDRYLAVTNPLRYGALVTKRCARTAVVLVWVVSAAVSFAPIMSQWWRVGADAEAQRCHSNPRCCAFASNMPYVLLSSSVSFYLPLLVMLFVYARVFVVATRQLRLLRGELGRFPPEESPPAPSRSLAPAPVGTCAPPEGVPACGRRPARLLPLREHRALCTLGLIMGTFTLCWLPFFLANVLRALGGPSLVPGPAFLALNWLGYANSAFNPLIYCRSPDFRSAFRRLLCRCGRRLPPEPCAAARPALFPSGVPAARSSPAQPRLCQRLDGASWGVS
T3 sequence (P07550 whole entry): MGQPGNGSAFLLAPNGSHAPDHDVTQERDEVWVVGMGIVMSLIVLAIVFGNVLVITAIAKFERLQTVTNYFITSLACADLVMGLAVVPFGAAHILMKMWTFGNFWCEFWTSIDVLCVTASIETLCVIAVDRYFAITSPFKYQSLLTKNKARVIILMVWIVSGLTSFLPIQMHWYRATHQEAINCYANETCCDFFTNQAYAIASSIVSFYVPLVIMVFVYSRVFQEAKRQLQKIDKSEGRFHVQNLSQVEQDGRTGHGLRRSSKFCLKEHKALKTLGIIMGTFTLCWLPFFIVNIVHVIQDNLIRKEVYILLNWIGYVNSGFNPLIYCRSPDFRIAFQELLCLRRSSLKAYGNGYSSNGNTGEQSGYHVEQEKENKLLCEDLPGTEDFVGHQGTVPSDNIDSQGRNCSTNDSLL
T2 sequence (P08588 whole entry): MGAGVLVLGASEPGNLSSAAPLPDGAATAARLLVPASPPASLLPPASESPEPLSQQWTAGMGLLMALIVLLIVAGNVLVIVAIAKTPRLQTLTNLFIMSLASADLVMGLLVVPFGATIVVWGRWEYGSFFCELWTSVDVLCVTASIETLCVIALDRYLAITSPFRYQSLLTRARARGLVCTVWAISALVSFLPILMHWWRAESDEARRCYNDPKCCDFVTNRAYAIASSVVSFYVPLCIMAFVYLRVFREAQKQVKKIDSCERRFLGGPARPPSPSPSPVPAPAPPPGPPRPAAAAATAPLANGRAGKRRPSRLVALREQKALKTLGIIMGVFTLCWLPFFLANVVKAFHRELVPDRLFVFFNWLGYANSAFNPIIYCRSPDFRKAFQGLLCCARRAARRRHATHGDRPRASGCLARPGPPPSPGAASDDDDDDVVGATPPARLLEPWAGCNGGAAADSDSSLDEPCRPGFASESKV

For the compound `CC1(C)CC(=O)c2ccc(OC[C@H](O)CNCCCc3ccccc3)cc2O1`, the Kd in experiment [1] (read-out: Kd) was greater than 10000 nM.
As to `COc1ccc(S(=O)(=O)NCCCCNC[C@H](O)COc2ccc3c(c2)OC(C)(C)CC3=O)cc1`, the Kd in experiment [2] (read-out: Kd) and in experiment [1] (read-out: Kd) was greater than 10000 nM each time.
Consider `CC(=O)Nc1ccc(CCNC[C@H](O)COc2ccc3ccc(=O)oc3c2)cc1`, for which the Kd in experiment [3] (read-out: Kd) and in experiment [1] (read-out: Kd) was greater than 10000 nM in each case.
With `CC1(C)CC(=O)c2ccc(OC[C@@H](O)CNCCCc3ccccc3)cc2O1`, the Kd in experiment [1] (read-out: Kd) is greater than 10000 nM.
Turning to `CS(=O)(=O)c1ccc(CCNC[C@H](O)COc2ccc3ccc(=O)oc3c2)cc1`, the Kd in experiment [3] (read-out: Kd) and in experiment [1] (read-out: Kd) was greater than 10000 nM in each case.
For `CC1(C)CC(=O)c2ccc(OC[C@H](O)CNCCCN3C(=O)c4ccccc4C3=O)cc2O1`, the Kd in experiment [2] (read-out: Kd) was greater than 10000 nM.
In the case of `O[C@@H](CNCC1COc2ccccc2O1)COc1ccc2c(c1)OCO2` (stereo partly drawn), the results for the Kd in experiment [2] (read-out: pKd (converted)) and in experiment [3] (read-out: pKd (converted)) were 1580 nM and 1550 nM, respectively. Moreover, in experiment [4], the EC50 was 316 nM.
Take `COC(=O)[C@H](N)Cc1ccc(OC[C@@H](O)CNCC2COc3ccccc3O2)cc1` (stereo partly drawn): the Kd in experiment [1] (read-out: Kd) is greater than 10000 nM.
`CC(=O)NCc1cccc(OC[C@@H](O)CNCCc2ccc(NS(=O)(=O)c3ccccc3)cc2)c1`: the EC50 in experiment [5] (read-out: pEC50 (converted)) was 4.47 nM; in experiment [6] (read-out: EC50), 10000 nM; in experiment [4], 380 nM. For the same compound, the Kd in experiment [2] (read-out: pKd (converted)) is 339 nM; in experiment [3] (read-out: pKd (converted)) it was 74.1 nM; in experiment [1] (read-out: pKd (converted)) it was 6.76 nM.
Regarding `O[C@@H](CNCC1COc2ccccc2O1)COc1cccc2cnccc12` (stereo partly drawn), the figures for the EC50 in experiment [5] (read-out: EC50), in experiment [6] (read-out: EC50) and in experiment [4] were 10000 nM, 10000 nM and 74.1 nM, respectively. Also, the Kd in experiment [2] (read-out: pKd (converted)) is 102 nM; in experiment [3] (read-out: pKd (converted)) it was 107 nM; in experiment [1] (read-out: pKd (converted)), 1350 nM.
As to `CC1(C)CC(=O)c2ccc(OC[C@@H](O)CNCCCN3C(=O)c4ccccc4C3=O)cc2O1`, the Kd in experiment [2] (read-out: Kd) is greater than 10000 nM.
As to `CCc1ccccc1OC[C@@H](O)CN[C@H]1CCCc2ccccc21`, the figures for the EC50 in experiment [5] (read-out: pEC50 (converted)) and in experiment [6] (read-out: pEC50 (converted)) were 191 nM and 8.71 nM, respectively. The Kd is 3.8 nM in experiment [3] (read-out: pKd (converted)) and 69.2 nM in experiment [1] (read-out: pKd (converted)).
On to `O=C1COc2cc(OC[C@@H](O)CNCC3COc4ccccc4O3)ccc21` (stereo partly drawn), for which the Kd in experiment [3] (read-out: pKd (converted)) is 3630 nM.
Regarding `O[C@@H](CNCC1COc2ccccc2O1)COc1ccnc2ccccc12` (stereo partly drawn), in experiment [2] (read-out: pKd (converted)), the Kd was 6030 nM.
Take `COc1ccc(S(=O)(=O)NCCCCCCNC[C@H](O)COc2ccc3ccc(=O)oc3c2)cc1`: the Kd in experiment [1] (read-out: Kd) is greater than 10000 nM.
Take `O=c1ccc2ccc(OC[C@@H](O)CNCCc3ccc4c(c3)OCO4)cc2o1`: the figures for the Kd in experiment [2] (read-out: pKd (converted)) and in experiment [1] (read-out: Kd) were 5620 nM and greater than 10000 nM, respectively.
In the case of `CCc1ccccc1OC[C@@H](O)CNCCC(c1ccccc1)c1ccccc1`, the Kd in experiment [2] (read-out: pKd (converted)) was 135 nM. Besides, in experiment [4], the EC50 is 309 nM.
Take `O=c1ccc2ccc(OC[C@@H](O)CNCC3COc4ccccc4O3)cc2o1` (stereo partly drawn): the Kd in experiment [3] (read-out: pKd (converted)) was 6610 nM.
